Measurements from ChEMBL document CHEMBL5291721, “A preclinical secondary pharmacology resource illuminates target-adverse drug reaction associations of marketed drugs” (Nat Commun, 2023).

Experiments:
[1] = target: T1, Estrogen receptor (Homo sapiens, UniProt P03372)
T1 sequence (P03372 whole entry): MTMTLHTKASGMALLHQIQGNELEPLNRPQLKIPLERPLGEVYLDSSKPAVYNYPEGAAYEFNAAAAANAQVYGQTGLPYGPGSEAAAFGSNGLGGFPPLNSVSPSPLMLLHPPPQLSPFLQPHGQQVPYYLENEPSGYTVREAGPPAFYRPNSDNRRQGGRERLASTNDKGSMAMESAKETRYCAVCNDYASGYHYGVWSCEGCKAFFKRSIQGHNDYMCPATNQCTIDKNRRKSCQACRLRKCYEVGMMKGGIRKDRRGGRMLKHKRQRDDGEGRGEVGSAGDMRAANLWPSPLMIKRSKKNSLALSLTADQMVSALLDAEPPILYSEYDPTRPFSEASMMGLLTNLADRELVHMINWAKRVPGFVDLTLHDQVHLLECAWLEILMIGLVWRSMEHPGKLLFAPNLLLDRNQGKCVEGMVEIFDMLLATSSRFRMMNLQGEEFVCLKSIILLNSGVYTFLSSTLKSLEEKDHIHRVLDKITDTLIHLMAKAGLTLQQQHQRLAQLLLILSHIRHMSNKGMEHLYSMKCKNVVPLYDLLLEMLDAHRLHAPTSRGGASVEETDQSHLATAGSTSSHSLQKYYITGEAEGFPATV

[2] = target: T2, Thromboxane A2 receptor (Homo sapiens, UniProt P21731); type: functional, cell-based
T2 sequence (P21731 whole entry): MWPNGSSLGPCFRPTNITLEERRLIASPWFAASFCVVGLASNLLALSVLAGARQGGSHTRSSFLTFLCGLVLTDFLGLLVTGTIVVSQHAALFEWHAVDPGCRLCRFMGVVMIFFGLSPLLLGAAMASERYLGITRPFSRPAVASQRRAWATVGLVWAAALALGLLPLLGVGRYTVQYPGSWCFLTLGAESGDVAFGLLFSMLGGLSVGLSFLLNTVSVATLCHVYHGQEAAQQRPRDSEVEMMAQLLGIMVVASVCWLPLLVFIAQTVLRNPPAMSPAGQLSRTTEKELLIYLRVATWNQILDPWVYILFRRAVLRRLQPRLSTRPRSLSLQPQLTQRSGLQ

[3] = target: T3, Prostaglandin G/H synthase 1 (Homo sapiens, UniProt P23219); type: functional
T3 sequence (P23219 whole entry): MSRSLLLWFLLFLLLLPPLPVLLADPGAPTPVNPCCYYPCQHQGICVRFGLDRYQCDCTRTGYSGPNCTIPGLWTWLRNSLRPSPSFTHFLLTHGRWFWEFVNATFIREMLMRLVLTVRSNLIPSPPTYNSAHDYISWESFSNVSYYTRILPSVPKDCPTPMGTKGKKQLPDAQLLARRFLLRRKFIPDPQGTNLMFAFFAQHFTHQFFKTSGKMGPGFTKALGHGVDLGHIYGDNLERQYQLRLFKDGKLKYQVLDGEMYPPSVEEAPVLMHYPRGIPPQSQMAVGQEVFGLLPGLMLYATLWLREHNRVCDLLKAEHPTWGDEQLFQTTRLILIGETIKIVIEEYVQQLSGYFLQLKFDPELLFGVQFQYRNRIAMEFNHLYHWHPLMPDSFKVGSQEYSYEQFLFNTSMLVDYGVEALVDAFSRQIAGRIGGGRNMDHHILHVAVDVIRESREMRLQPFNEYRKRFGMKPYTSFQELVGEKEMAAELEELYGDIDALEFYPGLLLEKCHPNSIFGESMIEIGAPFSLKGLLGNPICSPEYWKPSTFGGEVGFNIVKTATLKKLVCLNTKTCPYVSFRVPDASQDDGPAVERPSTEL

[4] = target: 5-hydroxytryptamine receptor 2B (Homo sapiens, UniProt P41595); type: functional, cell-based
5-hydroxytryptamine receptor 2B, sequence (P41595 whole entry): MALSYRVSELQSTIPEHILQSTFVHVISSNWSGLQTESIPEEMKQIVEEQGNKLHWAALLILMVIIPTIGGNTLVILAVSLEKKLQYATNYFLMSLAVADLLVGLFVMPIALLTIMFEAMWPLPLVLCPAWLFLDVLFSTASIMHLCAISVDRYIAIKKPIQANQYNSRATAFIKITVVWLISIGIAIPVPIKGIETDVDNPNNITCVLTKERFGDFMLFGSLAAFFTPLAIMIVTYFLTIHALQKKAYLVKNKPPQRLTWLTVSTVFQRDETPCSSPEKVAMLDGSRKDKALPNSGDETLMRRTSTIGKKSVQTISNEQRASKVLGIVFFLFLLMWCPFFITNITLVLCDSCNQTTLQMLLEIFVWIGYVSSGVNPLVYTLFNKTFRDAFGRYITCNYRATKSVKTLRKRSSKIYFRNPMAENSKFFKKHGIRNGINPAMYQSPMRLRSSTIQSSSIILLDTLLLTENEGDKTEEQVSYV

[5] = target: T2, Thromboxane A2 receptor; type: functional, cell-based; remark: listed apart in the source
[6] = target: T4, Alpha-1A adrenergic receptor (Homo sapiens, UniProt P35348); type: functional, cell-based
T4 sequence (P35348 whole entry): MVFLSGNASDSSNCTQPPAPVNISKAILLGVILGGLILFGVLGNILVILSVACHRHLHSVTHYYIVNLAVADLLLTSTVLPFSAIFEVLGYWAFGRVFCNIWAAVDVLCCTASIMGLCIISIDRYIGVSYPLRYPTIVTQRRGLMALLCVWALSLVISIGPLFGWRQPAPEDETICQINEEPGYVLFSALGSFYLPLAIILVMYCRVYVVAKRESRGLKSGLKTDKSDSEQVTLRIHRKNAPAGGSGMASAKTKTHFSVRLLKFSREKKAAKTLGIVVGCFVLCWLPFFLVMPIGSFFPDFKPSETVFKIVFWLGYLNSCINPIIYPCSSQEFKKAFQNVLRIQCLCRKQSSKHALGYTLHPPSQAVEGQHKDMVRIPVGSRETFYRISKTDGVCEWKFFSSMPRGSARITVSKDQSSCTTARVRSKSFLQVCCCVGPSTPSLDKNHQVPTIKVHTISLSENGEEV

[7] = target: cGMP-inhibited 3',5'-cyclic phosphodiesterase 3A (Homo sapiens, UniProt Q14432); type: functional
cGMP-inhibited 3',5'-cyclic phosphodiesterase 3A, sequence (Q14432 whole entry): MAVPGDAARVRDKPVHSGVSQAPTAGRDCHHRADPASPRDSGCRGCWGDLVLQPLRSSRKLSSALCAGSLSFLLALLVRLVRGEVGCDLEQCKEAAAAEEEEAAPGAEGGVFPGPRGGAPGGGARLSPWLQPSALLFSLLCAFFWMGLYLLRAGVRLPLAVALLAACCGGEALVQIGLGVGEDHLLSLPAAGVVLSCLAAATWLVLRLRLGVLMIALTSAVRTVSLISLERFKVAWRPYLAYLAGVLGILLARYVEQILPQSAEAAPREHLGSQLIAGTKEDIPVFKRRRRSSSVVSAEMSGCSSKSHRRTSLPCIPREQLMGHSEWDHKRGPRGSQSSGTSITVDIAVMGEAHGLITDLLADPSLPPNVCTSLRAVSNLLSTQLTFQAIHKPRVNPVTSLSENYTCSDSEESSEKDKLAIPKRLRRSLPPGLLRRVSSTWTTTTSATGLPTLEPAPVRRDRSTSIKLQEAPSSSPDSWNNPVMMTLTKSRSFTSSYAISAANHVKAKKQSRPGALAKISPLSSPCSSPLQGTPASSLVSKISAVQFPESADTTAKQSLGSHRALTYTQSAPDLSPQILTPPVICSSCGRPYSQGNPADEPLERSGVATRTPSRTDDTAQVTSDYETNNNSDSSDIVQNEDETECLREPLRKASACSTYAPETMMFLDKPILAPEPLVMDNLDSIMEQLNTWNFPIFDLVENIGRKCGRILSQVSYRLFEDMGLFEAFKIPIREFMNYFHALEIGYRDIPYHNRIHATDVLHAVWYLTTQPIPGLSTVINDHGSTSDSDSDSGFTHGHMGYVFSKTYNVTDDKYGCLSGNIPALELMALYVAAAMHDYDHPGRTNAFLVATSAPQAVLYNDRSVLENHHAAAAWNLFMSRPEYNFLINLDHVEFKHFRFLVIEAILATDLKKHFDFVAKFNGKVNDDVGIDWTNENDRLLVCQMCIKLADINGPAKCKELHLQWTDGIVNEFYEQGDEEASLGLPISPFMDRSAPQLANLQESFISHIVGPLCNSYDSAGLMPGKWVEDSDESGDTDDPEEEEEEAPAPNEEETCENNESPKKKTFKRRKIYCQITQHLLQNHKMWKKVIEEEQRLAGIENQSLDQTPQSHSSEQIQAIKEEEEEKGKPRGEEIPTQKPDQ

[8] = target: T5, Progesterone receptor (Homo sapiens, UniProt P06401)
T5 sequence (P06401 whole entry): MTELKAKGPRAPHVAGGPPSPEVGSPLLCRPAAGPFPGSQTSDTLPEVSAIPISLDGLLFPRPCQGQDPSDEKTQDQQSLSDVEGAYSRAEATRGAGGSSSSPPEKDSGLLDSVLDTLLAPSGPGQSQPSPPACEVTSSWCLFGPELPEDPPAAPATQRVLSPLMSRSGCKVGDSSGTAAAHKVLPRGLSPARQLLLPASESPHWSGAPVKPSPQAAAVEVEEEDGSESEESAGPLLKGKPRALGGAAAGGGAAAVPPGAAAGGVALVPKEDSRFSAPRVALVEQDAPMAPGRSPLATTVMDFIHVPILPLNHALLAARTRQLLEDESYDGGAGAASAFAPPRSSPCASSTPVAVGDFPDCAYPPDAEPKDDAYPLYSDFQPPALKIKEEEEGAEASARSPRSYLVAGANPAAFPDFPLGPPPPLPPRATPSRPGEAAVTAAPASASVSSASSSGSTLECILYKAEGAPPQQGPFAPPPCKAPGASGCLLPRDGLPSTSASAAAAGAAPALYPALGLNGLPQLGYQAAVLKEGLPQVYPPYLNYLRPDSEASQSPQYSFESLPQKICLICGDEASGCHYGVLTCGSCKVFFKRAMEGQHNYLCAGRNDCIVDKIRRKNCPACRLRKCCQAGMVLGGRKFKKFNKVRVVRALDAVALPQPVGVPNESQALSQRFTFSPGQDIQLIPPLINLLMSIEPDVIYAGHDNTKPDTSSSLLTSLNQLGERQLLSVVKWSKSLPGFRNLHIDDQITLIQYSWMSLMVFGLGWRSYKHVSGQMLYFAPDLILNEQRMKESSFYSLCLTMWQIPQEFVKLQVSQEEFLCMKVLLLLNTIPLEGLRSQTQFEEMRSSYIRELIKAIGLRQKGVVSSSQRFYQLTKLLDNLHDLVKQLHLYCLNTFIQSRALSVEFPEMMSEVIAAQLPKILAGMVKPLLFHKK

[9] = target: T3, Prostaglandin G/H synthase 1; type: functional; remark: listed apart in the source
[10] = target: Sodium-dependent serotonin transporter (Homo sapiens, UniProt P31645)
Sodium-dependent serotonin transporter, sequence (P31645 whole entry): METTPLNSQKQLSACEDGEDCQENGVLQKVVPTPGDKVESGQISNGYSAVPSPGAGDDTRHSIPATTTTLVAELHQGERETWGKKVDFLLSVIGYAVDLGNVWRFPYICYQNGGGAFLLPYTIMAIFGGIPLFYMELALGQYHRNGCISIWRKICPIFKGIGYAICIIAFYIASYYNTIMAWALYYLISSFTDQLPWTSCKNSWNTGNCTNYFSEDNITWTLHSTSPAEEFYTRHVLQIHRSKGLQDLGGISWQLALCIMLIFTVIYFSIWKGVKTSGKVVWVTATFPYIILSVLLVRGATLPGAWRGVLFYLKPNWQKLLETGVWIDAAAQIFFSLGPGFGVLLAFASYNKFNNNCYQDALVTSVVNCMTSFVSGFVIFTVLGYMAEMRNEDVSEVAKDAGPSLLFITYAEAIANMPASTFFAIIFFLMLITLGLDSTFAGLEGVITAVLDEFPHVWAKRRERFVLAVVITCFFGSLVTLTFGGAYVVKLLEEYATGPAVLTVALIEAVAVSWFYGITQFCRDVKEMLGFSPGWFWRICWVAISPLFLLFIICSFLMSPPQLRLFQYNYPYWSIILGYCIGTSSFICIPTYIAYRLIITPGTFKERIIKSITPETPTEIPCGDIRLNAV

[11] = target: Acetylcholinesterase (Homo sapiens, UniProt P22303); type: functional
Acetylcholinesterase, sequence (P22303 whole entry): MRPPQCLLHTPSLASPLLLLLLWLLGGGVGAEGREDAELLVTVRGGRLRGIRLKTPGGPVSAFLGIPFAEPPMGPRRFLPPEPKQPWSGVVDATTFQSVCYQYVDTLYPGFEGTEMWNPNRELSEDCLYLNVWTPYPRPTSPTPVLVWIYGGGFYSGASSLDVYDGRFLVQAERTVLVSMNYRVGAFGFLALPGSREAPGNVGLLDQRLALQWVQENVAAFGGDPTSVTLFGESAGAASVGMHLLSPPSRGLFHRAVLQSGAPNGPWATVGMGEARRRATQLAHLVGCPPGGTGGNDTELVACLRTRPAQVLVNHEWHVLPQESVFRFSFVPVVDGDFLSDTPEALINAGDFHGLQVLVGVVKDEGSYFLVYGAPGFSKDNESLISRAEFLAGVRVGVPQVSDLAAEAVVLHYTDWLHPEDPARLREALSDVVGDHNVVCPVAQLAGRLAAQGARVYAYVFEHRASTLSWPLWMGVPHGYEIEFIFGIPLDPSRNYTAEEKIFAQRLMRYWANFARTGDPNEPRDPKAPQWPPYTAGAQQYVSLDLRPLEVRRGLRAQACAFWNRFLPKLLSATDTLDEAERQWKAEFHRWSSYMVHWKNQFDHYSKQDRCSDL
Note: assay procedure not described here.

SMILES	AC50 [1]	AC50 [2]	AC50 [3]	AC50 [4]	AC50 [5]	AC50 [6]	AC50 [7]	AC50 [8]	AC50 [9]	AC50 [10]	AC50 [11]
N[C@@H](Cc1c[nH]c2ccc(O)cc12)C(=O)O [OXITRIPTAN]	> 30 µM	> 30 µM	> 30 µM	10.1 µM	> 30 µM	> 30 µM	> 30 µM	> 30 µM	> 3 µM	15.5 µM	> 30 µM
C1CNCCN1 [PIPERAZINE]	> 30 µM	> 30 µM	> 30 µM	> 30 µM	> 30 µM	> 30 µM	> 30 µM	> 30 µM	> 30 µM	> 30 µM	> 30 µM
c1cc(CN2CCCNCCNCCCNCC2)ccc1CN1CCCNCCNCCCNCC1 [PLERIXAFOR]	> 30 µM	> 30 µM	> 30 µM	> 30 µM	> 30 µM	> 30 µM	> 30 µM	> 30 µM	> 30 µM	> 30 µM	> 30 µM
O=C(NC(Cc1cc(=O)[nH]c2ccccc12)C(=O)O)c1ccc(Cl)cc1 (configuration not stated) [REBAMIPIDE]	> 30 µM	> 30 µM	> 30 µM	> 30 µM	> 30 µM	> 30 µM	> 30 µM	> 30 µM	> 30 µM	> 30 µM	> 30 µM
CCCC(=O)O[C@H]1[C@H](C)O[C@@H](O[C@H]2[C@H](N(C)C)[C@@H](O)[C@H](O[C@H]3[C@@H](CC=O)C[C@@H](C)[C@@H](O)/C=C/C=C/C[C@@H](C)OC(=O)C[C@@H](O)[C@@H]3OC)O[C@@H]2C)C[C@@]1(C)OC(=O)CC [ROKITAMYCIN]	> 30 µM	> 30 µM	> 30 µM	> 30 µM	> 30 µM	> 30 µM	> 10 µM	> 30 µM	8.78 µM	> 30 µM	> 30 µM
CCCCCCCCCCCCCCCCCC(=O)NCCCC[C@H](NC(=O)CC[C@@H](NC(=O)[C@H](C)NC(=O)[C@@H](C)O[C@H]1[C@H](O)[C@@H](CO)OC(O)[C@@H]1NC(C)=O)C(N)=O)C(=O)O (some centres not stated) [ROMURTIDE]	22.2 µM	15.9 µM	> 30 µM	> 30 µM	> 3 µM	13.3 µM	> 30 µM	2.94 µM	5.94 µM	> 30 µM	> 30 µM
COc1cc([C@@H]2c3cc4c(cc3[C@@H](O[C@@H]3O[C@@H]5CO[C@@H](c6cccs6)O[C@H]5[C@H](O)[C@H]3O)[C@H]3COC(=O)[C@H]23)OCO4)cc(OC)c1O [TENIPOSIDE]	> 30 µM	> 30 µM	> 30 µM	> 30 µM	> 30 µM	> 30 µM	> 3 µM	> 30 µM	> 30 µM	> 30 µM	> 30 µM
